Drawing on ChEMBL document CHEMBL1759970, “Design, synthesis and SAR of novel ethylenediamine and phenylenediamine derivatives as factor Xa inhibitors” (Bioorg Med Chem Lett, 2011), this text covers solubility for two compounds.

In brackets after ≈: the same amount, converted by molar mass. Bounds are passed on as bounds.

Data set [1] is described as follows: physchem. The settings on record: buffer, pH 1.2.
Description: Solubility of compound at pH 1.2
Data set [2] can be described thus: physchem. The settings on record: buffer, pH 6.8.
Description: Solubility of compound at pH 6.8

The term solubility denotes how much of the substance goes into solution per volume. A high value points to much dissolved substance. Consider `CCOC(=O)c1ccc(NC(=O)c2nc3c(s2)CN(C)CC3)c(NC(=O)c2cc3cc(Cl)ccc3[nH]2)c1`, for which the solubility is 1.1 µg/mL (≈ 2.04 µM) in “physchem [1]” and less than 1 µg/mL in “physchem [2]”.
In the case of `CC(Oc1ccc(NC(=O)c2cc3cc(Cl)ccc3[nH]2)c(NC(=O)c2nc3c(s2)CN(C)CC3)c1)C(=O)O` (centres undefined), the solubility is 256 µg/mL (≈ 462 µM) in the data set “physchem [1]” and 825 µg/mL (≈ 1490 µM) in the data set “physchem [2]”.
